Test results from patent EP4631957A1, “PEPTIDE FOR CARTILAGE REGENERATION, AND USES THEREOF” (Caregen Co., Ltd., priority 2022, dated 2024).
Where a SMILES comes first, the peptide text is derived from it. Where no end group is shown, it is not given here.

Tested on: C28/I2 cells
Assay: CCK-8 cytotoxicity assay in human-derived chondrocytes
Format: cell-based
Conditions: peptide at different concentrations, 3 days, read at 450 nm, FIG. 1 and FIG. 2
Procedure: The cytotoxicity of Peptide-1 or Peptide-2 upon addition to human-derived chondrocytes (C28/I2, human chondrocyte cell line) was analyzed using a CCK-8 assay.
Specifically, human-derived chondrocytes were seeded in a 96-well plate at a density of 3 × 10^3 cells/well and cultured in DMEM medium (cat. 11995-065, Gibco) for 24 hours. […] Meanwhile, as a negative control group (CON), an experimental group to which the peptide was not added was used.

**Q.** How did the “toxicity in human-derived chondrocytes (CCK-8 activity)” value turn out when `N=C(N)NCCC[C@H](N)C(=O)N[C@@H](Cc1ccc(O)cc1)C(=O)N[C@@H](Cc1ccccc1)C(=O)O` [Peptide-1, Arg(R)-Tyr(Y)-Phe(F)] (H-Arg-Tyr-Phe-OH) was run?
**A.** Its value is “did not exhibit toxicity”.

**Q.** Which “toxicity in human-derived chondrocytes (CCK-8 activity)” value does the source give for TAVRVG [Peptide-2] here?
**A.** The value was “did not exhibit toxicity”.
